Key:
benzidine skin sarcoma = assay: Anti-cancer activity on benzidine skin sarcoma in Barbados mice; type: in vivo; conditions: mice with benzidine sarcoma
Protocol: Study of the Anti-Cancer Activity of Anticanum on Benzidine Sarcoma. Before applying it to the silica gel, 7 ml of a solution of 2% benzidine and 0.9% sodium chloride was added until an opalescent suspension was formed (1 g silica gel for 5 ml NaCl solution). Twenty-five Barbados mice of both sexes with a weight of 18-20 g that were kept on a vivarium diet were administered benzidine and phorbol acetate immobilized on silica gel subcutaneously near the neck every three days. After two weeks, 18 animals had developed tumors of different sizes in the form of a small bump on the neck near the silica gel granulomas. Each group of animals was administered the corresponding compound parenterally at a dose of 100 mcg/kg weight twice a day for two weeks, beginning at 16 days after administration of the carcinogen.

HeLa cells = assay: Effect of MPs on HeLa cells: number of surviving cells versus concentration; type: cell-based
From the text: In establishing the minimum concentration of MPs that will slow the growth of cells, a comparison was made between the number of surviving cells and the concentration of MPs in the solution.

CC(=O)O[C@@]12CO[C@@H]1C[C@H](O)[C@@]1(C)C(=O)[C@H](O)C3=C(C)[C@@H](OC(=O)[C@H](O)[C@@H](NC(=O)OC(C)(C)C)c4ccccc4)C[C@@](O)([C@@H](OC(=O)c4ccccc4)[C@H]21)C3(C)C [Taxotere]
Weight of Animal, Before Treatment (benzidine skin sarcoma): 27 ± 2 g | Number of live cells after incubation, % (HeLa cells; dose 20 mcg/ml): 93% | Number of live cells after incubation, % (HeLa cells; dose 40 mcg/ml): 91% | Number of live cells after incubation, % (HeLa cells; dose 60 mcg/ml): 0.12% | Number of live cells after incubation, % (HeLa cells; dose 100 mcg/ml): 92% | Number of live cells after incubation, % (HeLa cells; dose 120 mcg/ml): 101%

— patent US20120129787A1, “Modified oligopeptides with anticancer properties and methods of obtaining them” (priority 2010, published 2012)
